Data: ChEMBL document CHEMBL1671758, “Environmental study of azole-resistant Aspergillus fumigatus and other aspergilli in Austria, Denmark, and Spain” (2010)
≈ marks a conversion by molar mass, not a printed value. Calls of active or inactive are those of the source. The calls are words filed in the database; no cut-off is given here.

What was measured:
[1] = test system: Aspergillus fumigatus; assay: Antifungal activity against azole-resistant Aspergillus fumigatus isolate R13 harboring Cyp51A TR/L98H mutant gene assessed as inhibition of fungal growth at 4 mg/l relative to control; assay type: functional, organism-based
[2] = test system: Aspergillus fumigatus; assay: Antifungal activity against azole-resistant Aspergillus fumigatus isolate T11 harboring Cyp51A TR/L98H mutant gene assessed as inhibition of fungal growth at 4 mg/l relative to control; assay type: functional, organism-based
[3] = test system: Aspergillus fumigatus; assay: Antifungal activity against azole-susceptible Aspergillus fumigatus isolate CM-237 assessed as fungal growth at 4 mg/l relative to control; assay type: functional, organism-based
[4] = test system: Aspergillus fumigatus; assay: Antifungal activity against azole-resistant Aspergillus fumigatus isolate T18 harboring Cyp51A TR/L98H mutation assessed as inhibition of fungal growth at 4 mg/l relative to control; assay type: functional, organism-based
[5] = test system: Aspergillus fumigatus; assay: Antifungal activity against azole-resistant Aspergillus fumigatus isolate T22 harboring Cyp51A TR/L98H mutation assessed as inhibition of fungal growth at 4 mg/l relative to control; assay type: functional, organism-based
[6] = test system: Aspergillus fumigatus; assay: Antifungal activity against azole-susceptible Aspergillus fumigatus isolate CM-237 by EUCAST microdilution method; assay type: functional
[7] = test system: Aspergillus niger; assay: Antifungal activity against Aspergillus niger isolate; assay type: functional
[8] = test system: Aspergillus nidulans; assay: Antifungal activity against Aspergillus nidulans isolate; assay type: functional
[9] = test system: Aspergillus lentulus; assay: Antifungal activity against Aspergillus lentulus isolate; assay type: functional
[10] = test system: Aspergillus fumigatus; assay: Antifungal activity against Aspergillus fumigatus isolates harboring Cyp51A TR/L98H mutation by EUCAST method; assay type: functional
[11] = test system: Aspergillus fumigatus; assay: Antifungal activity against azole-resistant Aspergillus fumigatus isolate T11 harboring Cyp51A TR/L98H mutant gene assessed as inhibition of fungal growth at 0.5 mg/l relative to control; assay type: functional, organism-based
[12] = test system: Aspergillus fumigatus; assay: Antifungal activity against azole-resistant Aspergillus fumigatus isolate R13 harboring Cyp51A TR/L98H mutant gene assessed as inhibition of fungal growth at 0.5 mg/l relative to control; assay type: functional, organism-based
[13] = test system: Aspergillus fumigatus; assay: Antifungal activity against azole-susceptible Aspergillus fumigatus isolate CM-237 assessed as fungal growth at 0.5 mg/l relative to control; assay type: functional, organism-based
[14] = test system: Aspergillus fumigatus; assay: Antifungal activity against azole-resistant Aspergillus fumigatus isolate T18 harboring Cyp51A TR/L98H mutation assessed as inhibition of fungal growth at 0.5 mg/l relative to control; assay type: functional, organism-based
[15] = test system: Aspergillus fumigatus; assay: Antifungal activity against azole-resistant Aspergillus fumigatus isolate T22 harboring Cyp51A TR/L98H mutation assessed as inhibition of fungal growth at 0.5 mg/l relative to control; assay type: functional, organism-based
[16] = test system: Aspergillus fumigatus; assay: Antifungal activity against azole-resistant Aspergillus fumigatus isolate T11 harboring Cyp51A TR/L98H mutant gene assessed as inhibition of fungal growth at 1 mg/l relative to control; assay type: functional, organism-based
[17] = test system: Aspergillus fumigatus; assay: Antifungal activity against azole-resistant Aspergillus fumigatus isolate R13 harboring Cyp51A TR/L98H mutant gene assessed as inhibition of fungal growth at 1 mg/l relative to control; assay type: functional, organism-based
[18] = test system: Aspergillus fumigatus; assay: Antifungal activity against azole-susceptible Aspergillus fumigatus isolate CM-237 assessed as fungal growth at 1 mg/l relative to control; assay type: functional, organism-based
[19] = test system: Aspergillus fumigatus; assay: Antifungal activity against azole-resistant Aspergillus fumigatus isolate T18 harboring Cyp51A TR/L98H mutation assessed as inhibition of fungal growth at 1 mg/l relative to control; assay type: functional, organism-based
[20] = test system: Aspergillus fumigatus; assay: Antifungal activity against azole-resistant Aspergillus fumigatus isolate T22 harboring Cyp51A TR/L98H mutation assessed as inhibition of fungal growth at 1 mg/l relative to control; assay type: functional, organism-based

Structure (SMILES)	inhibition [1]	inhibition [2]	Activity [3]	inhibition [4]	inhibition [5]	MIC [6] [µg/mL]	MIC [7] [µg/mL]	MIC [8] [µg/mL]	MIC [9] [µg/mL]	MIC [10] [µg/mL]	inhibition [11]	inhibition [12]	Activity [13]	inhibition [14]	inhibition [15]	inhibition [16]	Activity [17]	inhibition [18]	Activity [19]	Activity [20]
CCC(C)n1ncn(-c2ccc(N3CCN(c4ccc(OCC5COC(Cn6cncn6)(c6ccc(Cl)cc6Cl)O5)cc4)CC3)cc2)c1=O (stereo not given) [ITRACONAZOLE]	Active	inactive	Active	inactive	inactive	0.25 (≈ 0.354 µM)	2 (≈ 2.83 µM)	1 (≈ 1.42 µM)	0.5 (≈ 0.709 µM)	> 4										
CC[C@@H]([C@H](C)O)n1ncn(-c2ccc(N3CCN(c4ccc(OC[C@@H]5CO[C@@](Cn6cncn6)(c6ccc(F)cc6F)C5)cc4)CC3)cc2)c1=O [POSACONAZOLE]						0.06 (≈ 0.0856 µM)	0.5 (≈ 0.713 µM)	0.5 (≈ 0.713 µM)	0.25 (≈ 0.357 µM)	0.25 (≈ 0.357 µM)	inactive	Active	Active	Active	Active					
C[C@@H](c1ncncc1F)[C@](O)(Cn1cncn1)c1ccc(F)cc1F [VORICONAZOLE]						0.5 (≈ 1.43 µM)	0.5 (≈ 1.43 µM)	4 (≈ 11.5 µM)	4 (≈ 11.5 µM)	2 (≈ 5.73 µM)						Active	inactive	Active	Active	Active
